In patent US8715920B2, “Composition for preserving platelets during photosensitization” (Biovec Transfusion, LLC, priority 2010, dated 2014):
“Also recorded” adds a separate entry of the source. Positions of bridges follow the written chain, without caps; N, C: chain ends. Non-standard residues stand in square brackets, D forms with d. Residues, ends and D or L forms follow the SMILES beside them. hArg = N=C(N)NCCCC[C@H](N)C(=O)O; Mpa = O=C(O)CCS

What was measured:
[1] = Photodegradation upon exposure to ultraviolet light by HPLC analysis; conditions: for relative stabilities: assuming the dosage codes were equivalent
[2] = more sensitive to the αPTT; cited from earlier work

Structure (SMILES)	relative stabilities ([1]; UV282)	photodegradation profile, in words ([1]; UV 282 nm)	HPLC peak relative to unexposed control ([1]; UV 282 nm, exposure A)	HPLC peak relative to unexposed control ([1]; UV 282 nm, remainder of the exposures (after exposure A))	relative stabilities ([1]; UV308)	photodegradation, in words ([1]; UV 308 nm)	effect on PT and αPTT [2]	HPLC peak relative to unexposed control ([1]; UV 282 nm, exposure B)	HPLC peak relative to unexposed control ([1]; UV 282 nm, exposure C)	HPLC peak relative to unexposed control ([1]; UV 282 nm, exposure D)	HPLC peak relative to unexposed control ([1]; UV 282 nm, exposure F)	HPLC peak relative to unexposed control ([1]; UV 308 nm, exposure A)	HPLC peak relative to unexposed control ([1]; UV 308 nm, exposure B)	HPLC peak relative to unexposed control ([1]; UV 308 nm, exposure C)
N=C(N)NCCCC[C@@H]1NC(=O)CCSSC[C@@H](C(N)=O)NC(=O)[C@@H]2CCCN2C(=O)[C@H](Cc2c[nH]c3ccccc23)NC(=O)[C@H](CC(=O)O)NC(=O)CNC1=O [Eptifibatide] ([Mpa][hArg]GDWPC-NH2; disulfide 1-7)	Argatroban>Tirofiban>>Eptifibatide	faster photodegradation profile than the other compounds tested	47.0%	below the LLOD	Tirofiban>>Argatroban>>Eptifibatide	substantial photodegradation, but to a lesser extent than at UV282	–	–	–	–	–	–	–	–
COc1ccc2ccc(S(=O)(=O)N(C)[C@H]3CCN(Cc4csc(C(=N)N)c4)C3=O)cc2c1 [RPR-120844]	–	–	–	–	–	–	prolongs the PT and αPTT in a concentration-dependent manner	–	–	–	–	–	–	–
CCCCS(=O)(=O)N[C@@H](Cc1ccc(OCCCCC2CCNCC2)cc1)C(=O)O [Tirofiban]	–	–	81.2%	–	–	–	–	59.9%	37.7%	15.4%	below the LLOQ; also recorded: indeterminate	81.2%	76.9%	73.0%
